pIC50: −log10 of the molar value.

By pIC50 is commonly meant −log10 of the IC50, conventionally taken in molar units. A higher pIC50 goes with a small IC50.

Sequence of Acetylcholinesterase (P22303 whole entry): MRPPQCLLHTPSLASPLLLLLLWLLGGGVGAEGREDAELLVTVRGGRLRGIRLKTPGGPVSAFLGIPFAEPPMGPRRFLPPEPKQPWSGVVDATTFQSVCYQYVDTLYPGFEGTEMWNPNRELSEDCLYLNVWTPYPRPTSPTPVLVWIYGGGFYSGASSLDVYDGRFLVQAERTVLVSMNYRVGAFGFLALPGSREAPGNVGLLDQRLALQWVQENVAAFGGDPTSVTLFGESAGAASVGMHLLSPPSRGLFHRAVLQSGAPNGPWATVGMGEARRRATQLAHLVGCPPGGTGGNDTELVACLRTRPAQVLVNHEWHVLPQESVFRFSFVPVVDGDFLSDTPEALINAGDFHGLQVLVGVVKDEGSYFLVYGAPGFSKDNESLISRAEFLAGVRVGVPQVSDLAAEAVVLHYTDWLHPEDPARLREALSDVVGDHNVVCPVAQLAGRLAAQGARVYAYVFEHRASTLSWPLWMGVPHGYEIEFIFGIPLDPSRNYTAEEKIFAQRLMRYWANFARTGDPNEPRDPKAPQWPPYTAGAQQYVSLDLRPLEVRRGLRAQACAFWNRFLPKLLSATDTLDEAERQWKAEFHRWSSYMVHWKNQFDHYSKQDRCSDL

This test concerns the target Acetylcholinesterase (Homo sapiens, UniProt P22303). Briefly: Inhibition of acetylcholinesterase activity.
For `CN1CCC(C[C@@H]2Cc3ccccc3C2=O)CC1`, the pIC50 was 8.28.
Next, `CN1CCC(CCN2C(=O)c3ccccc3C2=O)CC1`: 9.05; `CN1CCC(CC/C=C2\Cc3ccccc3C2=O)CC1`: 9.09.
Regarding `CN1CCN(CC2Cc3ccccc3C2=O)CC1` (centres undefined), the pIC50 is 7.03.
Under `Cc1ccccc1CN1CCC(C)CC1` stands 8.00; under `CN1CCC(=C2Cc3ccccc3C2=O)CC1`, 5.92.
`CC1CCN(CC2Cc3ccccc3C2=O)CC1` (centres undefined): the pIC50 was 6.32.
Regarding `CN1CCC(C2Cc3ccccc3C2=O)CC1` (centres undefined), the pIC50 was 5.48.
For the molecule `CC1CCN(Cc2cccc3ccccc23)CC1`, the pIC50 is 6.66.
Under `CN1CCC(C[C@H]2Cc3ccccc3C2=O)CC1` stands 8.11.
With `CN1CCC(CCC2C(=O)Nc3ccccc3C2=O)CC1` (centres undefined), the pIC50 is 8.38.
As for `CC1CCN(Cc2ccccc2[N+](=O)[O-])CC1`, the pIC50 is 6.80.
In turn, `CC1CCN(CCc2ccccc2)CC1` gave a pIC50 of 6.74.
Under `CN1CCC(/C=C/C=C2\Cc3ccccc3C2=O)CC1` stands 8.52; under `CC1CCN(Cc2ccccc2)CC1`, 8.28.
Next, `CN1CCC(CCCC2Cc3ccccc3C2=O)CC1` (centres undefined): 8.82.
Under `CC1CCN(CC2CCCCC2)CC1` stands 8.05; under `CC1CCN(Cc2ccc3ccccc3c2)CC1`, 5.54.
`CN1CCC(/C=C2\Cc3ccccc3C2=O)CC1` gave a pIC50 of 8.08.

The values above are taken from ChEMBL document CHEMBL1126158, “Conformational analyses and molecular-shape comparisons of a series of indanone-benzylpiperidine inhibitors of acetylcholinesterase” (J Med Chem, 1992).
